According to patent US10806783B2, “Vaccine compositions” (priority 2014, dated 2020):

Test system: Influenza virus
Format: in vivo
Conditions: Example 4, FIG. 3; BALB-c mice, subcutaneous, day 0 and day 21; various time points; 2 μg antigen, freeze-dried and stored at 45° C.

Compound: CN(C)CC(=O)O [dimethylglycine, Dimethylglycine]
- HIA titre (effect with different excipients): antigen sparing effect and acceleration of onset of immunity observed with polyethyleneimine are also observed
